From publication PMC8388802, “Study on the Structure-Activity Relationship of an Antimicrobial Peptide, Brevinin-2GUb, from the Skin Secretion of Hylarana guentheri” (Antibiotics, 2021) come the findings set out here.

In brackets after ≈: the same amount, converted by molar mass. Where a SMILES comes first, the peptide text is derived from it.

One test relates to E. coli (ATCC CRM 8739). It is filed as cell-based, Escherichia coli. As to the method:
(§1) The method of antimicrobial assay is based on the Methods for Dilution Antimicrobial Susceptibility Tests for Bacteria that Grow Aerobically from the Clinical and Laboratory Standards Institute (CLSI).The antimicrobial activities of peptides were evaluated against Gram-positive bacteria S. aureus (ATCC 6538), MRSA (NCTC 12493), E. faecalis (NCTC 12493), Gram-negative bacteria E. coli (ATCC CRM 8739), K. pneumoniae (ATCC 43816), P. aeruginosa (ATCC CRM 9027), yeast C. albicans (ATCC CRM 10231) and clinical isolates MRSA (B042 V2E1 A), E. coli (ATCC BAA-2340), K. pneumoniae (ATCC BAA-1705), P. aeruginosa (B004 V2S2 B).
(§2) At the first stage of the assay, 20 μL bacteria were cultured in 100 mL Mueller Hinton Broth (MHB) or Yeast Extract–Peptone–Dextrose broth (YPD-B), respectively, and was incubated overnight. Then, microorganisms were subcultured in 20 mL fresh MHB or YPD-B to achieve cultures in the logarithmic phase (1 × 10^8 CFU/mL), which can be verified by optical density (OD) (The OD of Gram-positive bacteria is 0.23, OD of Gram-negative bacteria is 0.4, and OD of yeast is 0.15), and viable cell counts. Then, the medium was used to dilute the cultures to specific cell densities (Gram-negative and Gram-positive bacteria: 5 × 10^5 CFU/mL; yeast: 1 × 10^6 CFU/mL), which were the final concentrations of bacterial suspensions used in the assay. The peptides were dissolved in DMSO to reach a final concentration of 512 µM. A series of two-fold dilutions ranging from 512 µM to 1 µM were dosed in the 96-well plates.
(§3) Antimicrobial assays were conducted in 96-well plates, which were divided into five groups, including a negative control group (PBS), a positive control group (20 μg/mL norfloxacin for bacteria and 10 μg/mL amphotericin B for yeast), vehicle control (1% DMSO), blank control (MHB or YPD-B), and a peptide group. Each microorganism had five repetitions, and each well contained 1 µL corresponding solution and 99 µL culture. After incubation at 37 °C overnight, the absorbance of each well was tested by a microplate reader (EL808, Biolise BioTek Winooski, Minneapolis, USA) under a 550 nm wavelength. The MIC is the lowest concentration at which no bacterial growth can be observed.
(§4) The next day, 10 µL of every clear well was taken out to be cultured on a Mueller Hinton Agar (MHA) plate and incubated at 37 °C for 16–20 h. The MBC is the lowest concentration without any bacterial colonies, which means at this concentration, the peptide reduces the viability of the pathogen by more than 99.9%.

Test [1] has as its system S. aureus (ATCC 6538) biofilm. It is filed as cell-based, Staphylococcus aureus. Conditions: ATCC 6538, 24 h. Here is the method: (§5) The anti-biofilm activities of the peptides against S. aureus (ATCC 6538), MRSA (NCTC 12493), E. faecalis (NCTC 12493), E. coli (ATCC CRM 8739), K. pneumoniae (ATCC 43816), and P. aeruginosa (ATCC CRM 9027) were evaluated.
(§6) The bacteria were inoculated in a different medium (Gram-positive bacteria were in TSB and Gram-negative bacteria were in LB) overnight, and the subculture was conducted in the same medium. When the bacteria reached a specific density, 100 µL of the dilution was added to each well of the 96-well microplate. Then 1 µL of peptide at a series of concentrations, the same concentration in the antimicrobial assay, were added into the well together with the bacteria. The plates were put into a moist shaking incubator with a speed of 200 rpm, and the temperature was set at 37 ℃. After a 24-h incubation, the liquid in the wells was aspirated, and each was washed twice by 100 µL PBS. One hundred µL of methanol were added into each well to stabilise the biofilm. After air-drying, 100 µL crystal violet was used to dye the biofilm, and they were dissolved in the 100 µL glacial acidic acid after drying. The solutions were transferred to a new microplate, and the absorbance of each well was tested by a microplate reader (EL808, Biolise BioTek Winooski, Minneapolis, MN, USA) at 595 nm wavelength. MBIC was the minimum concentration of the peptide showing no biofilm formation.
(§7) The bacteria were inoculated in a different medium (Gram-positive bacteria were in TSB and Gram-negative bacteria were in LB) overnight, and the subculture was conducted in the same medium. When the bacteria reached a specific density, 100 µL of the dilution was added to each well of the 96-well microplates. The plates were put into a moist shaking incubator with a speed of 200 rpm and the temperature was 37 ℃. After a 24 h incubation, the liquid in the wells was aspirated and they were washed twice by 100 µL PBS of each well. The peptides with the same concentrations were diluted in the corresponding medium and 100 µL were added into each well. After a 24-h incubation, the liquid in the wells was aspirated and they were washed twice by 100 µL PBS. One hundred µL of methanol were added into the wells to stabilise the biofilms. After being air-dried, 100 µL crystal violet was used to dye the biofilm, and they were dissolved in the 100 µL glacial acidic acid after drying. The solutions were transferred to a new microplate, and the absorbance of each well was tested by a microplate reader (EL808, Biolise BioTek Winooski, Minneapolis, USA) at 595 nm wavelength.

Another test relates to MRSA (NCTC 12493). The class given is cell-based, Methicillin-resistant Staphylococcus aureus. As to the method:
as §1, §2, §3, §4

A further test has as its system MRSA (B042 V2E1 A). It is filed as cell-based, Methicillin-resistant Staphylococcus aureus. As to the method:
as §1, §2, §3, §4

For test [2], the system named is E. faecalis (NCTC 12493) biofilm. It is filed as cell-based, Enterococcus faecalis. Conditions: NCTC 12493, 24 h. Here is the method: as §5, §6, §7
Test [3] relates to P. aeruginosa (ATCC CRM 9027). It is filed as cell-based, Pseudomonas aeruginosa. As to the method: as §1, §2, §3, §4
Test [4] has as its system P. aeruginosa (B004 V2S2 B). The class given is cell-based, Pseudomonas aeruginosa. As to the method:
as §1, §2, §3, §4

In test [5] the test system is P. aeruginosa (ATCC CRM 9027) biofilm. The class given is cell-based, Pseudomonas aeruginosa. Particulars: ATCC CRM 9027, 24 h. As to the method:
as §5, §6, §7

The subject of another test is S. aureus (ATCC 6538). The class given is cell-based, Staphylococcus aureus. Here is the method:
as §1, §2, §3, §4

The subject of test [6] is E. coli (ATCC CRM 8739) biofilm. It is filed as cell-based, Escherichia coli. Conditions: ATCC CRM 8739, 24 h. As to the method:
as §5, §6, §7

On to `CC[C@H](C)[C@H](NC(=O)[C@@H](NC(=O)CN)C(C)C)C(=O)N[C@H](C(=O)N[C@@H](CCCCN)C(=O)N[C@H](C(=O)N[C@@H](CC(C)C)C(N)=O)[C@@H](C)O)[C@@H](C)CC` [Peptide 7-tB2U-K] (H-GVIIKTL-NH2), for which the MBC (in the test with E. coli (ATCC CRM 8739); in the test on MRSA (NCTC 12493); with MRSA (B042 V2E1 A); in [3]; in test [4]; against S. aureus (ATCC 6538)) was over 512 µM in each case. The MIC (as a rule, the smallest concentration in the dilution series that meets the test's criterion for growth inhibition) in the test on E. coli (ATCC CRM 8739) was over 512 µM; against MRSA (NCTC 12493), 256 µM (≈ 190 µg/mL); in the test with MRSA (B042 V2E1 A) it was over 512 µM; in test [3], over 512 µM; in test [4] it was over 512 µM; against S. aureus (ATCC 6538), 512 µM (≈ 380 µg/mL). Also, the MBEC in test [1] was 512/>512 μM; in test [2] it was over 512 µM; in [5], over 512 µM; in test [6], over 512 µM. Besides, the MBIC in test [1] was 512/>512 μM; in test [2], over 512 µM; in [5], over 512 µM; in [6], over 512 µM.
For `CC[C@H](C)[C@H](NC(=O)[C@@H](NC(=O)CN)C(C)C)C(=O)N[C@H](C(=O)N[C@@H](CC(=O)O)C(=O)N[C@H](C(=O)N[C@@H](CC(C)C)C(=O)N[C@@H](CCCCN)C(=O)NCC(=O)N[C@@H](C)C(=O)N[C@@H](C)C(=O)N[C@@H](CCCCN)C(=O)N[C@H](C(=O)N[C@H](C(=O)N[C@@H](C)C(=O)N[C@@H](C)C(=O)N[C@@H](CCC(=O)O)C(=O)N[C@@H](CC(C)C)C(=O)N[C@@H](CC(C)C)C(N)=O)C(C)C)[C@@H](C)O)[C@@H](C)O)[C@@H](C)CC` [tB2U-α] (H-GVIIDTLKGAAKTVAAELL-NH2), the MBC (against E. coli (ATCC CRM 8739); against MRSA (NCTC 12493); in the test with MRSA (B042 V2E1 A); in test [3]; in [4]; with S. aureus (ATCC 6538)) was over 512 µM in each case. Moreover, the MIC (in the test on E. coli (ATCC CRM 8739); with MRSA (NCTC 12493); in the test on MRSA (B042 V2E1 A); in test [3]; in test [4]; against S. aureus (ATCC 6538)) was over 512 µM each time. The MBEC in test [1], in test [2], in test [5] and in test [6] was over 512 µM throughout. Also, the MBIC in [1], in [2], in test [5] and in test [6] was over 512 µM each time.
Take `CC[C@H](C)[C@H](NC(=O)[C@@H](NC(=O)CN)C(C)C)C(=O)N[C@H](C(=O)N[C@@H](CCCCN)C(=O)N[C@@H](CCCCN)C(=O)N[C@@H](CC(C)C)C(=O)N[C@@H](CCCCN)C(=O)NCC(=O)N[C@@H](C)C(=O)N[C@@H](C)C(=O)N[C@@H](CCCCN)C(=O)N[C@@H](CCCCN)C(=O)N[C@H](C(=O)N[C@@H](C)C(=O)N[C@@H](C)C(=O)N[C@@H](CCCCN)C(=O)N[C@@H](CC(C)C)C(=O)N[C@@H](CC(C)C)C(N)=O)C(C)C)[C@@H](C)CC` [tB2U-6K] (H-GVIIKKLKGAAKKVAAKLL-NH2): the minimum bactericidal concentration (MBC) (usually the smallest concentration meeting the test's criterion for killing) with E. coli (ATCC CRM 8739) was determined as 2 µM (≈ 3.9 µg/mL); against MRSA (NCTC 12493), 128 µM (≈ 249 µg/mL); with MRSA (B042 V2E1 A) it was 256 µM (≈ 499 µg/mL); in test [3], 16 µM (≈ 31.2 µg/mL); in test [4], 64 µM (≈ 125 µg/mL); in the test with S. aureus (ATCC 6538), 32 µM (≈ 62.4 µg/mL). The MIC was 2 µM (≈ 3.9 µg/mL) against E. coli (ATCC CRM 8739); 64 µM (≈ 125 µg/mL) against MRSA (NCTC 12493); 256 µM (≈ 499 µg/mL) against MRSA (B042 V2E1 A); 16 µM (≈ 31.2 µg/mL) in test [3]; 64 µM (≈ 125 µg/mL) in [4]; 32 µM (≈ 62.4 µg/mL) against S. aureus (ATCC 6538). Moreover, the MBEC in test [1], in [2], in test [5] and in test [6] was over 512 µM throughout. Moreover, the MBIC was determined as 64 µM in [1], 64 µM in test [2], 32 µM in [5] and 2 µM in [6].
`CC[C@H](C)[C@H](NC(=O)[C@@H](NC(=O)CN)C(C)C)C(=O)N[C@H](C(=O)N[C@@H](CCCCN)C(=O)N[C@H](C(=O)N[C@@H](CC(C)C)C(=O)N[C@@H](CCCCN)C(=O)NCC(=O)N[C@@H](C)C(=O)N[C@@H](C)C(=O)N[C@@H](CCCCN)C(=O)N[C@H](C(=O)N[C@H](C(N)=O)C(C)C)[C@@H](C)O)[C@@H](C)O)[C@@H](C)CC` [Peptide 14-tB2U-K] (H-GVIIKTLKGAAKTV-NH2): the MBC (with E. coli (ATCC CRM 8739); with MRSA (NCTC 12493); against MRSA (B042 V2E1 A); in test [3]; in [4]; against S. aureus (ATCC 6538)) was over 512 µM throughout. Moreover, the MIC in the test with E. coli (ATCC CRM 8739) is over 512 µM; in the test with MRSA (NCTC 12493), over 512 µM; with MRSA (B042 V2E1 A), over 512 µM; in [3], over 512 µM; in [4], over 512 µM; with S. aureus (ATCC 6538), 256 µM (≈ 358 µg/mL). The MBEC in [1], in test [2], in test [5] and in [6] was over 512 µM each time. In addition, the MBIC in test [1], in test [2], in test [5] and in [6] was over 512 µM throughout.
